Columns and labels:
[1] = Organ weights after subcutaneous administration in CD-1 mice (Example 6); assay type: in vivo; conditions: end of study, 50 mg/kg subcutaneously twice a week for 7 weeks
Procedure, shortened: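 Male CD-1 mice aged 8-9 weeks, 4 per group, were dosed subcutaneously twice weekly for 7 weeks with 50 mg/kg oligonucleotide (100 mg/kg/week), with PBS controls. Organ weights were assessed, and plasma was collected on day 28.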

[2] = Hematology assays after subcutaneous administration in beagle dogs (Example 8); assay type: in vivo; conditions: 30 mg/kg subcutaneous days 1, 3, 5, 8, 15, 22, 29
Protocol: (§1) There were 4 animals per group.
Blood samples were collected from the cephalic vein or saphenous vein of each animal. About 0.5 mL of blood samples was put into tubes containing the potassium salt of EDTA. Blood obtained from all dog groups was measured using an ADVIA2120i hematology analyzer for measurements of the various blood cells, as well as other hematology markers.

human SMAD7 mRNA = assay: Antisense inhibition of human SMAD7 mRNA expression in Hep3B cells by 3-10-3 cEt gapmers, 10,000 nM, electroporation (Example 2); assay type: cell-based; conditions: Hep3B cells, electroporation with 10,000 nM antisense oligonucleotide, approximately 24 hours, SMAD7 mRNA by RT-PCR (RTS5062), relative to untreated control cells
Procedure, shortened: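 Hep3B cells (20,000 per well) were electroporated with 10,000 nM 16-mer 3-10-3 cEt gapmer (phosphorothioate, 5-methylcytosine). After about 24 h, SMAD7 mRNA was quantified by qRT-PCR with primer probe set RTS5062, normalised to RIBOGREEN total RNA, and expressed as percent inhibition versus untreated cells.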

dog SMAD7 mRNA = assay: Pharmacology: dog SMAD7 mRNA expression in liver, kidney, duodenum, ileum and colon after subcutaneous administration in beagle dogs (Example 8); assay type: in vivo; conditions: 30 mg/kg subcutaneous, necropsy, normalized to HPRT1
Protocol: as §1
The pharmacological activity of the Ionis oligonucleotides in dogs was assessed by measuring dog SMAD7 mRNA expression in liver, kidney, duodenum, ileum, and colon at necropsy. All the human ASOs used are complementary to dog SMAD7 mRNA.
Tissue samples from all dogs were analyzed for SMAD7 mRNA expression using the primer probe set RTS34649 (forward sequence […], designated SEQ ID NO: 2740; reverse sequence […], designated SEQ ID NO: 2741; probe sequence […], designated SEQ ID NO: 2742), which was normalized to mRNA levels of the housekeeping gene, HPRT1. One-way ANOVA with Dunnet's comparison test was used for statistical analysis.

[3] = Body and organ weights after oral gavage in CD-1 mice (Example 7); assay type: in vivo; conditions: 500 mg/kg oral gavage once daily for 4 weeks, end of study
Protocol: Groups of 7-8 week old male CD-1 mice were given an oral gavage dose once daily for 4 weeks of 500 mg/kg of Ionis SMAD7 oligonucleotides. Each group contained 8 mice. One group of male CD-1 mice was administered saline by oral gavage daily.
Final body weights were measured at the end of the study. There was no significant difference in the body weight of the mice treated with antisense oligonucleotide compared to the control.
None of the Ionis SMAD7 oligonucleotides caused any changes in organ weights outside the expected range for antisense oligonucleotides.

mouse Smad7 mRNA = assay: Murine Smad7 mRNA expression after oral administration in BALB/c mice (Example 11); assay type: in vivo; conditions: 500 mg/kg/day oral for 3 weeks, 24 hours after last dose
Procedure, shortened: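 BALB/c mice (4 per group) dosed orally with Smad7 antisense oligonucleotides at 500 mg/kg/day for 3 weeks; PBS-dosed group as control. Murine Smad7 mRNA quantified in liver, kidneys, duodenum, ileum and colon with primer probe set RTS1114.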

830025 (antisense TTTGTAAATCGAAAGC; 3-10-3 cEt gapmer, further chemistry not given here) [compound 830025]
Organ weights, Kidneys [1]: 0.6 g
Organ weights, Liver [1]: 2.2 g
Organ weights, Spleen [1]: 0.2 g
Basophils [2]: 0.3%
Eosinophils [2]: 2.4%
Hematocrit [2]: 43%
Hemoglobin [2]: 13.9 g/dL
Lymphocytes [2]: 34%
MCH [2]: 21.7 pg
MCHC [2]: 32.5 g/dL
MCV [2]: 67 fL
Monocytes [2]: 8.2%
Neutrophils [2]: 55%
PLT [2]: 250 ^3/μL
RBC [2]: 6.4 ^6/L
Reticulocytes [2]: 1.2%
WBC [2]: 5.7 ^3/μL
% Inhibition (human SMAD7 mRNA): 62%
% inhibition of SMAD7 mRNA expression (compared to control), Distal colon (dog SMAD7 mRNA; distal colon): 3%
% inhibition of SMAD7 mRNA expression (compared to control), Duodenum (dog SMAD7 mRNA; duodenum): 7%
% inhibition of SMAD7 mRNA expression (compared to control), Ileum (dog SMAD7 mRNA; ileum): 9%
% inhibition of Smad7 mRNA expression (compared to control), Kidney (dog SMAD7 mRNA; kidney): 25%
% inhibition of Smad7 mRNA expression (compared to control), Liver (dog SMAD7 mRNA; liver): 0%
% inhibition of SMAD7 mRNA expression (compared to control), Proximal colon (dog SMAD7 mRNA; proximal colon): 24%
Body weight [3]: 35 g
Heart weight [3]: 0.17 g
Kidneys weight [3]: 0.71 g
Liver with gallbladder weight [3]: 1.88 g
Spleen weight [3]: 0.10 g
Mouse Smad7 mRNA expression (% inhibition), Colon (mouse Smad7 mRNA; colon): 39 % inhibition
Mouse Smad7 mRNA expression (% inhibition), Duodenum (mouse Smad7 mRNA; duodenum): 51 % inhibition
Mouse Smad7 mRNA expression (% inhibition), Ileum (mouse Smad7 mRNA; ileum): 0 % inhibition
Mouse Smad7 mRNA expression (% inhibition), Kidney (mouse Smad7 mRNA; kidney): 31 % inhibition
Mouse Smad7 mRNA expression (% inhibition), Liver (mouse Smad7 mRNA; liver): 25 % inhibition

Source: patent publication US10517889B2, “Modulators of SMAD7 expression” (Ionis Pharmaceuticals, Inc., priority 2017, dated 2019)
